Structures are written as SMILES. Where two headings read alike, the source gives them in different places. Numbered stars: 1 amine (or outer) side, 2 acyl side, 3 side chain; on linkers, the order of the positions; unused ones are H or OH. Square brackets hold non-standard residues; d marks the D form. Side chains are listed from the residue outwards. Peptide text beside a SMILES is read from it. * marks the point of attachment. γGlu = O=C(O)[C@H](CCC(=O)[*:2])N[*:1]; Palmitoyl = CCCCCCCCCCCCCCCC(=O)*; Abu = CC[C@H](N)C(=O)O; Aib = CC(C)(N)C(=O)O

This series in a line: Stability on incubation with mouse plasma for 8 h (RP-HPLC peak height). It is filed as in vitro ADME.

Protocol: The samples were then separated on RP-HPLC and the peak height compared to the value at time=0 hours.

In the case of `CC[C@H](NC(=O)[C@@H](N)Cc1c[nH]cn1)C(=O)N[C@@H](CCC(=O)O)C(=O)NCC(=O)N[C@H](C(=O)N[C@@H](Cc1ccccc1)C(=O)N[C@H](C(=O)N[C@@H](CO)C(=O)N[C@@H](CC(=O)O)C(=O)N[C@@H](Cc1ccc(O)cc1)C(=O)N[C@@H](CO)C(=O)N[C@@H](CCCCN)C(=O)N[C@@H](Cc1ccc(O)cc1)C(=O)N[C@@H](CCSC)C(=O)N[C@@H](CC(=O)O)C(=O)N[C@@H](CC(N)=O)C(=O)N[C@@H](CCCNC(=N)N)C(=O)N[C@@H](CCCNC(=N)N)C(=O)N[C@@H](C)C(=O)N[C@@H](CCCCN)C(=O)N[C@@H](CC(=O)O)C(=O)N[C@@H](Cc1ccccc1)C(=O)N[C@H](C(=O)N[C@@H](CCC(N)=O)C(=O)N[C@@H](Cc1c[nH]c2ccccc12)C(=O)N[C@@H](CC(C)C)C(=O)N[C@@H](CCSC)C(=O)N[C@@H](CC(N)=O)C(=O)N[C@H](C(=O)O)[C@@H](C)O)C(C)C)[C@@H](C)O)[C@@H](C)O` [(Abu^2) dogfish glucagon] (H-H[Abu]EGTFTSDYSKYMDNRRAKDFVQWLMNT-OH; N-terminus and C-terminus assumed), the metabolised at 8 h (mouse, plasma) was 58.4%.

As for `CSCC[C@H](NC(=O)[C@H](Cc1ccc(O)cc1)NC(=O)[C@H](CCCCN)NC(=O)[C@H](CO)NC(=O)[C@H](Cc1ccc(O)cc1)NC(=O)[C@H](CC(=O)O)NC(=O)[C@H](CO)NC(=O)[C@@H](NC(=O)[C@H](Cc1ccccc1)NC(=O)[C@@H](NC(=O)CNC(=O)[C@H](CCC(=O)O)NC(=O)C(C)(C)NC(=O)[C@@H](N)Cc1c[nH]cn1)[C@@H](C)O)[C@@H](C)O)C(=O)N[C@@H](CC(=O)O)C(=O)N[C@@H](CC(N)=O)C(=O)N[C@@H](CCCNC(=N)N)C(=O)N[C@@H](CCCNC(=N)N)C(=O)N[C@@H](C)C(=O)N[C@@H](CCCCN)C(=O)N[C@@H](CC(=O)O)C(=O)N[C@@H](Cc1ccccc1)C(=O)N[C@H](C(=O)N[C@@H](CCC(N)=O)C(=O)N[C@@H](Cc1c[nH]c2ccccc12)C(=O)N[C@@H](CC(C)C)C(=O)N[C@@H](CCSC)C(=O)N[C@@H](CC(N)=O)C(=O)N[C@H](C(=O)O)[C@@H](C)O)C(C)C` [(Aib^2) dogfish glucagon] (H-H[Aib]EGTFTSDYSKYMDNRRAKDFVQWLMNT-OH; N-terminus and C-terminus assumed), the metabolised at 8 h (mouse, plasma) was found to be 47.4%. In turn, `CSCC[C@H](NC(=O)[C@H](C)NC(=O)[C@H](CCCCN)NC(=O)[C@H](CO)NC(=O)[C@H](Cc1ccc(O)cc1)NC(=O)[C@H](CC(=O)O)NC(=O)[C@H](CO)NC(=O)[C@@H](NC(=O)[C@H](Cc1ccccc1)NC(=O)[C@@H](NC(=O)CNC(=O)[C@H](CCC(=O)O)NC(=O)[C@@H](C)NC(=O)[C@@H](N)Cc1c[nH]cn1)[C@@H](C)O)[C@@H](C)O)C(=O)N[C@@H](CC(=O)O)C(=O)N[C@@H](CC(N)=O)C(=O)N[C@@H](CCCNC(=N)N)C(=O)N[C@@H](CCCNC(=N)N)C(=O)N[C@@H](C)C(=O)N[C@@H](CCCCN)C(=O)N[C@@H](CC(=O)O)C(=O)N[C@@H](Cc1ccccc1)C(=O)N[C@H](C(=O)N[C@@H](CCC(N)=O)C(=O)N[C@@H](Cc1c[nH]c2ccccc12)C(=O)N[C@@H](CC(C)C)C(=O)N[C@@H](CCSC)C(=O)N[C@@H](CC(N)=O)C(=O)N[C@H](C(=O)O)[C@@H](C)O)C(C)C` [(D-A^2 A^13) dogfish glucagon, (D-A^2A^13) dogfish glucagon] (H-H[dA]EGTFTSDYSKAMDNRRAKDFVQWLMNT-OH; N-terminus and C-terminus assumed) showed a metabolised at 8 h (mouse, plasma) of 33.9%. Compound `CSCC[C@H](NC(=O)[C@H](Cc1ccc(O)cc1)NC(=O)[C@H](CCCCN)NC(=O)[C@H](CO)NC(=O)[C@H](Cc1ccc(O)cc1)NC(=O)[C@H](CC(=O)O)NC(=O)[C@H](CO)NC(=O)[C@@H](NC(=O)[C@H](Cc1ccccc1)NC(=O)[C@@H](NC(=O)CNC(=O)[C@H](CCC(=O)O)NC(=O)[C@@H](C)NC(=O)[C@@H](N)Cc1c[nH]cn1)[C@@H](C)O)[C@@H](C)O)C(=O)N[C@@H](CC(=O)O)C(=O)N[C@@H](CC(N)=O)C(=O)N[C@@H](CCCNC(=N)N)C(=O)N[C@@H](CCCNC(=N)N)C(=O)N[C@@H](C)C(=O)N[C@@H](CCCCN)C(=O)N[C@H](CC(=O)O)C(=O)N[C@@H](Cc1ccccc1)C(=O)N[C@H](C(=O)N[C@@H](CCC(N)=O)C(=O)N[C@@H](Cc1c[nH]c2ccccc12)C(=O)N[C@@H](CC(C)C)C(=O)N[C@@H](CCSC)C(=O)N[C@@H](CC(N)=O)C(=O)N[C@H](C(=O)O)[C@@H](C)O)C(C)C` [(D-A^2 D-D^21) dogfish glucagon, (D-A^2D-D^21) dogfish glucagon] (H-H[dA]EGTFTSDYSKYMDNRRAK[dD]FVQWLMNT-OH; N-terminus and C-terminus assumed) came in with a metabolised at 8 h (mouse, plasma) of 31.7%. Still for that read-out and setting: the result for `CSCC[C@H](NC(=O)[C@H](CC(C)C)NC(=O)[C@H](Cc1c[nH]c2ccccc12)NC(=O)[C@H](CCC(N)=O)NC(=O)[C@@H](NC(=O)[C@H](Cc1ccccc1)NC(=O)[C@H](CC(=O)O)NC(=O)[C@H](CCCCN)NC(=O)[C@H](C)NC(=O)[C@H](CCCNC(=N)N)NC(=O)[C@H](CCCNC(=N)N)NC(=O)[C@H](CC(N)=O)NC(=O)[C@H](CC(=O)O)NC(=O)[C@H](CCSC)NC(=O)[C@@H](Cc1ccc(O)cc1)NC(=O)[C@H](CCCCN)NC(=O)[C@H](CO)NC(=O)[C@H](Cc1ccc(O)cc1)NC(=O)[C@H](CC(=O)O)NC(=O)[C@H](CO)NC(=O)[C@@H](NC(=O)[C@H](Cc1ccccc1)NC(=O)[C@@H](NC(=O)CNC(=O)[C@H](CCC(=O)O)NC(=O)[C@@H](C)NC(=O)[C@@H](N)Cc1c[nH]cn1)[C@@H](C)O)[C@@H](C)O)C(C)C)C(=O)N[C@@H](CC(N)=O)C(=O)N[C@H](C(=O)O)[C@@H](C)O` [(D-A^2 D-Y^13) dogfish glucagon, (D-A^2D-Y^13) dogfish glucagon] (H-H[dA]EGTFTSDYSK[dY]MDNRRAKDFVQWLMNT-OH; N-terminus and C-terminus assumed) reads 26.5%. On to `CC[C@H](C)[C@H](NC(=O)[C@H](Cc1ccccc1)NC(=O)[C@@H](NC(=O)CNC(=O)[C@H](CCC(=O)O)NC(=O)[C@@H](C)NC(=O)[C@@H](N)Cc1c[nH]cn1)[C@@H](C)O)C(=O)N[C@@H](CO)C(=O)N[C@@H](CC(=O)O)C(=O)N[C@@H](Cc1ccc(O)cc1)C(=O)N[C@@H](CO)C(=O)N[C@@H](CCCCN)C(=O)N[C@@H](Cc1ccc(O)cc1)C(=O)N[C@@H](CCSC)C(=O)N[C@@H](CC(=O)O)C(=O)N[C@@H](CC(N)=O)C(=O)N[C@@H](CCCNC(=N)N)C(=O)N[C@@H](CCCNC(=N)N)C(=O)N[C@@H](C)C(=O)N[C@@H](CCCCN)C(=O)N[C@@H](CC(=O)O)C(=O)N[C@@H](Cc1ccccc1)C(=O)N[C@H](C(=O)N[C@@H](CCC(N)=O)C(=O)N[C@@H](Cc1c[nH]c2ccccc12)C(=O)N[C@@H](CC(C)C)C(=O)N[C@@H](CCSC)C(=O)N[C@@H](CC(N)=O)C(=O)N[C@H](C(=O)O)[C@@H](C)O)C(C)C` [(D-A^2 I^7) dogfish glucagon, (D-A^2I^7) dogfish glucagon] (H-H[dA]EGTFISDYSKYMDNRRAKDFVQWLMNT-OH; N-terminus and C-terminus assumed), for which, under “mouse plasma, 8 h, peak height vs time = 0 h, read-out: Percentage of degradation after 8h”, the metabolised at 8 h is 33%. On to `CC[C@H](C)[C@H](NC(=O)[C@H](CO)NC(=O)[C@H](Cc1ccc(O)cc1)NC(=O)[C@H](CC(=O)O)NC(=O)[C@H](CO)NC(=O)[C@@H](NC(=O)[C@H](Cc1ccccc1)NC(=O)[C@@H](NC(=O)CNC(=O)[C@H](CCC(=O)O)NC(=O)[C@@H](C)NC(=O)[C@@H](N)Cc1c[nH]cn1)[C@@H](C)O)[C@@H](C)O)C(=O)N[C@@H](Cc1ccc(O)cc1)C(=O)N[C@@H](CCSC)C(=O)N[C@@H](CC(=O)O)C(=O)N[C@@H](CC(N)=O)C(=O)N[C@@H](CCCNC(=N)N)C(=O)N[C@@H](CCCNC(=N)N)C(=O)N[C@@H](C)C(=O)N[C@@H](CCCCN)C(=O)N[C@@H](CC(=O)O)C(=O)N[C@@H](Cc1ccccc1)C(=O)N[C@H](C(=O)N[C@@H](CCC(N)=O)C(=O)N[C@@H](Cc1c[nH]c2ccccc12)C(=O)N[C@@H](CC(C)C)C(=O)N[C@@H](CCSC)C(=O)N[C@@H](CC(N)=O)C(=O)N[C@H](C(=O)O)[C@@H](C)O)C(C)C` [(D-A^2 I^12) dogfish glucagon, (D-A^2I^12) dogfish glucagon] (H-H[dA]EGTFTSDYSIYMDNRRAKDFVQWLMNT-OH; N-terminus and C-terminus assumed), for which the metabolised at 8 h (mouse, plasma) was found to be 20.7%.

Consider `CCCCCCCCCCCCCCCC(=O)N[C@@H](CCC(=O)NCCCC[C@H](NC(=O)[C@@H](NC(=O)[C@H](CC(N)=O)NC(=O)[C@H](CCSC)NC(=O)[C@H](CC(C)C)NC(=O)[C@H](Cc1c[nH]c2ccccc12)NC(=O)[C@H](CCC(N)=O)NC(=O)[C@@H](NC(=O)[C@H](Cc1ccccc1)NC(=O)[C@H](CC(=O)O)NC(=O)[C@H](CCCCN)NC(=O)[C@H](C)NC(=O)[C@H](CCCNC(=N)N)NC(=O)[C@H](CCCNC(=N)N)NC(=O)[C@H](CC(N)=O)NC(=O)[C@H](CC(=O)O)NC(=O)[C@H](CCSC)NC(=O)[C@H](Cc1ccc(O)cc1)NC(=O)[C@H](CCCCN)NC(=O)[C@H](CO)NC(=O)[C@H](Cc1ccc(O)cc1)NC(=O)[C@H](CC(=O)O)NC(=O)[C@H](CO)NC(=O)[C@@H](NC(=O)[C@H](Cc1ccccc1)NC(=O)[C@@H](NC(=O)CNC(=O)[C@H](CCC(=O)O)NC(=O)[C@@H](C)NC(=O)[C@@H](N)Cc1c[nH]cn1)[C@@H](C)O)[C@@H](C)O)C(C)C)[C@@H](C)O)C(=O)O)C(=O)O` [(D-A^2) dogfish glucagon Lys^30-γ-Glutamyl-PAL] (H-H[dA]EGTFTSDYSKYMDNRRAKDFVQWLMNTK([γGlu-Palmitoyl])-OH; N-terminus and C-terminus assumed), for which, for the setting “mouse, plasma”, the metabolised at 8 h was found to be 11.6%.

The record behind these values is patent US20150197550A1 (UNIVERSITY OF ULSTER, priority 2012, published 2015).
